From patent US10016383B2, “Inhibitors of metallo-β-lactamase-enzymes” (McMaster University, priority 2013, dated 2018)
Read-outs that look alike come from different tables or passages of the source.

What was measured:
[1] = rats, i.v.; cited from earlier work
K. pneumoniae N11-2218 [2] = assay: Microdilution checkerboard / MIC; format: cell-based, Klebsiella pneumoniae; settings: meropenem alone
Protocol: FIC values were determined by standard methods^27 setting up checkerboards with 8 concentrations of each meropenem and AM-A in serial ½ dilutions. Experiments were done in duplicate and the mean used for calculation. The MIC for each compound was the lowest concentration of compound showing no growth. The FIC for each compound was calculated as the concentration of the compound in the presence of co-compound for a well showing no growth, divided by the MIC for that compound. The FIC index is the sum of the two FICs.

K. pneumoniae N11-2218 [3] = assay: Mouse systemic infection, organ bacterial load; format: in vivo, CD1 mice; settings: meropenem alone, doses below 50 mg/kg
Description: (§1) All animals were housed in specific pathogen-free units in the Central Animal Facility at McMaster University. All experimental protocols were approved by, and performed in accordance with the McMaster Animal Research Ethics Board. Female CD1 mice were purchased from Charles River.
(§2) Mice were infected intraperitoneally (ip) with a dose of 2×10^6 colony forming units (cfu) of Klebsiella pneumoniae N11-2218 for all organ bacterial load experiments, or with a dose of 5×10^7cfu for all survival experiments. For all organ bacterial load experiments, mice were euthanized 48 hours post infection, and spleen and liver were harvested. Organs were placed into 1 mL sterile PBS on ice, and then homogenized (Mixer Mill 400; Retsch). Organ homogenates were then serially diluted in PBS, and plated on Brilliant Green agar (Oxoid) for cfu enumeration. For survival curves, mice were monitored for endpoint. For all experiments, mice were treated 30 minutes post infection with a specified subcutaneous dose of either PBS, meropenem, AM-A inhibitor, or a combination of both antibiotic and inhibitor.

K. pneumoniae N11-2218 [4] = assay: Mouse lethal systemic infection, survival; format: in vivo, CD1 mice; settings: monotherapy (alone)
Description: as §1, §2

| Compound | LD50 [1] [mg/kg] | MIC (K. pneumoniae N11-2218 [2]; Klebsiella pneumoniae, N112218, read-out: MIC) [µg/mL] | MIC (K. pneumoniae N11-2218 [2]) [µg/mL] | response of infection to meropenem monotherapy (K. pneumoniae N11-2218 [3]) | prevention of lethal infection (K. pneumoniae N11-2218 [4]) |
| --- | --- | --- | --- | --- | --- |
| O=C(O)CN[C@H](CN[C@@H](CC(=O)O)C(=O)O)C(=O)O [AM-B, aspergillomarasime B] | 660 | – | – | – | – |
| C[C@@H](O)[C@H]1C(=O)N2C(C(=O)O)=C(S[C@@H]3CN[C@H](C(=O)N(C)C)C3)[C@H](C)[C@H]12 [meropenem, reference compound] | – | 32 | 32 | resistant | unable to prevent lethal infection |
